Results as given in patent US11439640B2, “Pharmaceutical composition comprising substance inhibiting enzymatic activity of peroxiredoxin 2 as effective ingredient for treatment of colorectal cancer” (EWHA UNIVERSITY-INDUSTRY COLLABORATION FOUNDATION, priority 2017, dated 2022).
Each block holds one molecule with its values, some of them ahead of it. Residues, ends and D or L forms follow the SMILES beside them. *: point of attachment. Cbz = O=C(OCc1ccccc1)*

Tests used:
[1] = test system: Axin1-related destruction complex; assay: Co-immunoprecipitation of Axin1-related destruction complex; assay type: cell-based, human; conditions: SW480 cells; FIG. 34
Experimental: (§1) For immunoprecipitation, purified cell lysates (0.5-1 mg of proteins) were removed in advance with 30 μL of protein-A/G Sepharose 4 Fast Flow beads (Amersham Biosciences) for one hour.
(§2) Supernatants (cultures floating on the surface) were incubated with 3 μg of an appropriate antibody overnight, and then, precipitated by mixing with 30 μL of protein-A/G beads at 4° C. for three hours.
(§3) Then, the beads were washed three times with 1 mL of lysis buffer, followed by in vitro PARP analysis or immunoblotting.

HT29 cells = assay: Colony forming assay in HT29 cells; assay type: cell-based, human; conditions: APC-mutant CRC cells
RKO cells = assay: Colony forming assay in RKO cells; assay type: cell-based, human; conditions: APC wild-type CRC cells
[2] = test system: tumor xenograft derived from HT29; assay: HT29 tumor xenograft in mice (luminescence imaging, tumor weight); assay type: in vivo, mouse; conditions: intraperitoneal, 286 μM in DMSO, from 6 days after cell injection, every 3 days; FIGS. 65 and 66
Experimental: In the case of a tumor xenograft model, the mice were anesthetized by the inhalation of isoflurane gas (N2O:O2/70%:30%) and subcutaneously injected with HT29-luc2 cells (2.5×10^5 cells) suspended in 200 μL of PBS. Compound 1 to Compound 6 (286 μM in DMSO) were intraperitoneal administered starting from 6 days after the cell injection and repeated every 3 days.
Bioluminescent imaging was performed with IVIS Lumina Series III (Perkin Elmer). For each image photographing session, luciferin suspended in PBS (150 mg of luciferin/kg body weight) was administered intraperitoneally according to the manufacturer's protocol.
Up to four animals were maintained in the integral anesthetic manifold equipment and they were imaged 10 minutes after luciferin injection. The IVIS imaging system collects the photographic images of mice and quantitative bioluminescent signals therefrom and then allows them to overlap with each another.

recombinant human PrxI = biological target: T1, recombinant human PrxI (Homo sapiens, UniProt Q06830); assay: Peroxiredoxin (peroxidase) assay, PrxI; assay type: biochemical
T1 sequence (Q06830 1-199): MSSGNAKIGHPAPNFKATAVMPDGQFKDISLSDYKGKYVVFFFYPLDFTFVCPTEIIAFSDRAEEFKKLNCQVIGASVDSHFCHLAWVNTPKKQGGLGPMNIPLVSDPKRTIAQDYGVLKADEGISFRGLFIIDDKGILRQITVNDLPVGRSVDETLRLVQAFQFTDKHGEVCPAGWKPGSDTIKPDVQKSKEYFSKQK
Experimental: The peroxidase assay was performed in a reaction mixture (200 μL) containing 250 μM NADPH, 1.5 μM yeast TR, 3 μM yeast Trx, a recombinant human Prx (PrxI (4.6 μM) and PrxII (16.4 μM)), and […] (pH 7.0) containing 1 mM EDTA, and […] H2O2.
The mixture (minus H2O2) was preincubated for 5 minutes in the presence or absence of Compounds 1 to 6 (100 μM), and then, the reaction was initiated by adding H2O2. NADPH oxidation was monitored at 30° C. for 5 minutes as the absorbance decreased near 340 nm using an Agilent UV8453 spectrophotometer (Hewlett Packard. USA). The initial reaction rate was calculated using the linear portion of the curve and indicated as the amount of oxidized NADPH per minute.

SW480 cells = assay: Colony forming assay in SW480 cells; assay type: cell-based, human; conditions: APC-mutant CRC cells
GST-TNKS1 PARP protein = GST-TNKS1 PARP protein (Homo sapiens, UniProt O95271); conditions: 500 μM H2O2 for 30 minutes; FIG. 49
Experimental: Zinc ions were observed using 4-(2-pyridylazo) resorcinol (PAR) in an aqueous solution.
The GST-TANK1 PARP protein was incubated with 500 μM H2O2 for 30 minutes in 200 μL of 40 mM HEPES (pH 7.0) reaction buffer containing 0.1 mM PAR. The formation of a PAR2-Zn^2+ complex was monitored at 500 nm with a UV/VIS spectrophotometer (Agilent).
The total zinc content of the purified GST-TNKS1 PARP protein used in the assay was determined by adding 0.5 mM p-chloromercuribenzoic acid to a reaction mixture.

TNKS = conditions: FIG. 40
Experimental: (§4) Immunocomplex-bound beads were incubated at 25° C. for 30 minutes in 40 μL of assay buffer (50 mM Tris-HCl, pH 8.0, 4 mM MgCl2) containing 4 μCi of γ-^32[P]-NAD^+. The reaction was stopped by adding 2×SDS sample buffer. The sample was boiled and separated using an SDS denaturing gel.
(§5) The gel was dried under vacuum and radiographed on an imaging plate. Radioactivity recorded on the plate was read and quantified by Fujifilm Bio-imaging Analyzer System (BAS)-3000.

[3] = biological target: recombinant TNKS1 PARP domain (amino acids of 1023-1327) (Homo sapiens, UniProt O95271); conditions: incubation with H2O2; FIG. 48
Experimental: as §4, §5

Axin1 = Axin1 immunoprecipitation, PARsylation and ubiquitination blot; assay type: cell-based, human; conditions: cells of the control, HT29 and SW480
Experimental: as §1, §2, §3

Chain of recombinant TNKS1 PARP domain (amino acids of 1023-1327) (O95271 1023-1327): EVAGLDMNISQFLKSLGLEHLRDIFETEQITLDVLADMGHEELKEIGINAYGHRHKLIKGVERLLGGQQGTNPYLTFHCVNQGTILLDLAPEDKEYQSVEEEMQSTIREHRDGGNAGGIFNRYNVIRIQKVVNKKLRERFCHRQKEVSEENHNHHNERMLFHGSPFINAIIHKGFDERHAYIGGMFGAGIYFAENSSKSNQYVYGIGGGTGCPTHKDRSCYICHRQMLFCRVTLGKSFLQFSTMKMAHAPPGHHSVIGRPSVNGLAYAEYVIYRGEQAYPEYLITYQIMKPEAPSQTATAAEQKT
Chain of GST-TNKS1 PARP protein (O95271 1023-1327): as above

Compound: O=C1Nc2cc(Br)ccc2/C1=C1/Nc2ccccc2/C1=N\O [BIO]
- phospho-β-catenin in the Axin1-related destruction complex [1]: disappeared

- effect on initial rate of PrxI activity (in words) (recombinant human PrxI; 100 μM compound): not affected
- inhibition at 100 µM (recombinant human PrxI; 100 μM compound, FIG. 63): ~50%
- initial rate of PrxI activity (recombinant human PrxI; group treated with Conoidin A, 100 μM, control 263.7±45.4): 241.7 ± 21 nmol/min
Compound: [O-][n+]1c(CBr)c(CBr)[n+]([O-])c2ccccc21 [Compound 6, 2,3-bis(bromomethyl)quinoxaline 1,4-dioxide]
- inhibition of proliferation (colony formation) of HT29 cells (HT29 cells): sufficiently inhibited
- inhibition of proliferation (colony formation) of RKO cells (RKO cells): not
- tumor growth compared to the control [2]: significantly delayed
- inhibition of proliferation (colony formation) of SW480 cells (SW480 cells): sufficiently inhibited

Compound: OO [Compound H2O2, hydrogen peroxide]
- TNKS1 PARP proteins that lost zinc ions (GST-TNKS1 PARP protein): ≥ 90%
- TNKS activity (PARP) in HT29 cells (TNKS; HT29 cells): inhibited
- TNKS activity (PARP) in SW480 cells (TNKS; SW480 cells): inhibited
- polyADP-ribosylation activity of TNKS1 PARP domain [3]: fully inactivated

Compound: CC(C)C[C@@H](C=O)NC(=O)[C@H](CC(C)C)NC(=O)[C@H](CC(C)C)NC(=O)OCc1ccccc1 [MG132] (Cbz-Leu-Leu-Leu-aldehyde)
- PARsylated and ubiquitinated Axin1 (Axin1): induces the accumulation
